Results reported in patent US11851459B2, “Methods and uses of modulators of anaphase promoting complex (APC) activity for treating cancer” (University of Saskatchewan, priority 2018, dated 2023).

Experiments:
apc10Δ cells = experiment: apc10Δ temperature sensitive growth, spot dilutions; format: cell-based, yeast; settings: 30 and 34° C., weakly expressed on glucose
Description: A. Yeast 2-hybrid (Y2H) cells expressing the APC subunit bait and the galactose inducible Apc10 peptide prey grown on glucose or galactose. Cells co-expressing the Apc5 or Apc10-bait and Apc10 aptamer-prey vectors were spotted onto the appropriate media, in the presence or absence of galactose (the aptamers are Gal inducible), to confirm Y2H interactions. Growth on trp^− his^− media ensures both plasmids are maintained. A Y2H interaction will drive expression of the ADE2 gene, allowing growth on ade^− media. B. Aptamers that bind Apc10 can suppress APC mutant phenotypes. Spot dilutions of apc10Δ cells expressing an empty vector control or the one of 6 Apc10 aptamers tested. Log phase cells were 10-fold serially diluted and spotted onto plates containing either 2% glucose or 2% galactose. The plates were then incubated at 30° C. (permissive temperature) and 34° C. (restrictive stress). C. Peptides identified as binding to the yeast Apc10 APC subunit using the Y2H screen increase growth of wildtype (WT) cells. […]
The six peptide expressing vectors were transformed into apc10Δ cells and assessed for temperature sensitive growth. […]
Over 100 peptides that bound either Apc5 or Apc10 were recovered from millions screened. […] Vectors expressing these 6 peptides were transformed into WT or APC mutant cells and assessed for ts growth.

Apc10 = molecular target: T1, Apc10 (Saccharomyces cerevisiae, UniProt P53068); experiment: Yeast 2-hybrid (Y2H) assay, Apc10 bait; format: binding
T1 construct: expressed in transfected cells; host or cells: yeast Y2H cells
T1 sequence (P53068 1-250): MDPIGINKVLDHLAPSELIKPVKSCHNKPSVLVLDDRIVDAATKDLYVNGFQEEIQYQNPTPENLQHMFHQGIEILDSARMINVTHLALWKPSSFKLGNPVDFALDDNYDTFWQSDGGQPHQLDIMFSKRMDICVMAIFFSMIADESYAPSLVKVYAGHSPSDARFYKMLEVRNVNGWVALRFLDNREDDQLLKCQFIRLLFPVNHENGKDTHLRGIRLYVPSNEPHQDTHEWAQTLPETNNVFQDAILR
Method: (§1) The reverse genetic screen utilized a yeast 2-hybrid (Y2H) protocol that selected for peptides that bound to the APC subunits Apc5 or Apc10 (see FIG. 8 for APC structure), to assess whether peptide-binding might modify APC function. Peptides that bound APC subunits were then assayed for those that suppressed APC mutant defects.
A library of random small peptides were cloned into a Thioredoxin (Trx) scaffold (see FIG. 9 for Trx-peptide structure) and expressed from a galactose-inducible Y2H prey vector in cells expressing the Apc10 bait vector (the modified Apc10 is still part of the complete APC complex). Six peptides that reproducibly interacted with the Apc10 bait construct in Y2H assays were identified (FIG. 1A) and were examined further. Cells will only grow in this assay if the peptide interacts with Apc5 or Apc10.
To identify peptides that bound to either Apc5 or Apc10 proteins using a yeast 2-hybrid (Y2H) screen, random small peptides were cloned into the TrxA scaffold (library provided by R. Geyer; FIG. 9) and expressed from a galactose-inducible Y2H prey vector in cells harboring either the APC5 or APC10 genes cloned into the Y2H bait vectors (APC5/APC10 bait constructs complement APC mutant defects).
(§2) Over 100 peptides that bound either Apc5 or Apc10 were recovered from millions screened. Six peptides that reproducibly interacted with the Apc5 or Apc10 bait construct in Y2H assays were examined further. Vectors expressing these 6 peptides were transformed into WT or APC mutant cells and assessed for ts growth.

[1] = test system: apc5 temperature sensitive mutant and/or apc10Δ mutant; experiment: Viability of APC mutant yeast (spot dilution); format: cell-based
Description: Suitable APC activators also include APC activators that increase the cell viability of an wild-type and/or an APC mutant cell by at least 10%, at least 20%, at least 30%, at least 40%, at least 50%, at least 60%, at least 70% or at least 80% compared to a cell with wild-type APC function. […] Examples of yeast cells with defective APC function include apc5 and apc10 mutants. An example of an apc5 mutant is the apc5 temperature sensitive mutant described herein. An example of an apc10 mutant is the apc10 deletion mutant described herein. Viability of a yeast mutant can be measured for example, by the spot dilution assays described herein or any other method known in the art.
as §1, §2

[2] = test system: APC (substrates Cyclin B, Securin, Cdc20, HURP); experiment: APC substrate westerns in MDA-MB-231 cells expressing peptides; format: cell-based, human
Method: A. Transient transfection of the C43-4 peptide plasmid into human triple negative MDA-MB-231 breast cancer cells followed by Western blot analysis of lysates against Cyclin B, Securin and Cdc20 showing enhanced protein loss. B. Cells in A were treated with DOX (1 uM) for 48 hrs with cell viability measured using an MTT assay kit. The experiment was done in triplicate with standard error of the means shown.
A. Stable integration of C43-4 in MDA-MB-231 cells was established by selection of transfected cells on Geneticin for 7 days. Westerns against APC substrates show APC activation. B. Cells in A were treated with DOX (1 uM) for 48 hrs with cell viability measured using an MTT assay kit. Mean and SEM of 3 biological repeats.
A. TNBC MDA-MB-231 cells stably expressing APC binding peptides activate the APC. Cells were grown to confluence and then used to prepare protein lysates. The lysates were used to measure levels of the APC substrate CDC20, which will be reduced if the APC is activated. Cells stably expressing the pcDNA empty vector were used as a control. B. In a similar experiment, MDA-MB-231 cells stably expressing the APC binding peptides shown, or the empty vector control, were used to measure protein levels of the APC substrate HURP using Westerns. C. Triplicate blots as in B were scanned, normalized to tubulin and plotted. Error of the mean is shown. Significant changes are indicated. D. MDA-MB-231 cells stably expressing the empty pcDNA vector, or the C43-4 and C13-3 APC binding peptides, were treated with 1 μM Doxorubicin for 24 hrs. Cell viability was measured using an MTT viability assay.
The C43-4 peptide sequence was cloned into the human expression vector pcDNA. This construct was transiently, and stably, expressed in human breast cancer cell line MDA-MB-231. […] In 231 cells, which are triple negative, aggressive and somewhat resistant to Doxorubicin, the transiently and stably transfected C43-4 peptide resensitized them to DOX treatment (FIGS. 22B and 23B).
In FIG. 26B, MDA-MB-231 cells were also stably transfected with the peptides C1-8, C2-4B, C3-1B, and C9-5. Levels of the APC substrate HURP were measured in lysates prepared from these cells. […] The empty vector pcDNA was also stably expressed in 231 cells and used as a control.

[3] = transiently transfected MDA-MB-231

Row | Sequence | apc10Δ growth phenotype (apc10Δ cells) | binds Apc10 in a yeast 2 hybrid assay (Apc10) | viability of an APC mutant [1] | levels of the APC substrate HURP ([2]; MDA-MB-231 stably transfected, normalized to tubulin) | levels of the APC substrate CDC20 ([2]; MDA-MB-231 stably expressing peptides) | protein levels of CyclinB ([2]; stably transfected MDA-MB-231) | APC substrate Cdc20 [2, 3] | APC substrate Cyclin B [2, 3] | APC substrate Securin [2, 3]
1 | RMPQWWQWMWV [C2-4B] | suppressed the apc10Δ growth phenotype | Binds Apc10 | increases the viability of an APC mutant | Only C1-8 did not reduce HURP levels | – | – | – | – | –
2 | NGSSHNDLRVRRLTLISRLC [C43-4] | suppressed the apc10Δ growth phenotype | Binds Apc10 | increases the viability | – | reduce levels | reduced protein levels | reduced | reduced | reduced
